We go through seven compounds from patent US10385003B2, “Ophthalmic formulation” (priority 2011, dated 2019).

Series [1] can be described thus: Π-A and pressure/time measurements of meibomian lipid films mixed with compounds of formula (I) (Example 5, FIG. 2). It counts as physicochemical, human. The procedure:
(§1) The physico-chemical properties of certain wax esters, meibomian lipids, and compounds of formula (I) alone or mixed with human meibum were characterized on a Langmuir-Blodgett minitrough by means of surface pressure-area (Π-A) measurements.
(§2) A buffer (NaCl: 6.63 g/L, KCl: 1.72 g/L, NaHCO3: 1.38 g/L, CaCl2.2H2O: 0.15 g/L, NaH2PO4.H2O: 0.10 g/L and MOPS: 4.18 g/L dissolved in MilliQ water) was added to a double barrier minitrough (Nima Technology Ltd, UK; Working surface area 15 cm^2−80 cm^2). Purified preparations of wax esters in chloroform (1 mg/mL), meibomian lipids in chloroform (1 mg/mL), and compounds of formula (I) in chloroform (ranging from 1.4 μmol to 0.1 μmol) alone or mixed with human meibum at different ratios, were spread on the surface (air-buffer interface) of the buffer subphase. Dynamic Π-A profiles of films at the air-buffer interface of the Langmuir trough were collected using software supplied by NIMA Technology. Surface pressure was monitored using a paper plate connected to a Wilhelmy balance. Compression and expansion cycles were conducted over an area (A) of 79 cm^2−16 cm^2 at a barrier rate of 15 cm^2/min and at a temperature of 20° C. and 34° C.
Adding a small amount of a compound of formula (I) causes fast stabilisation of the film (indicated on the pressure/time curve with the mixture having little change between isocycles) and the maximum surface pressures are much higher.

The nature of series [2]: Π-A measurements of meibomian lipids from a patient with dry eye disease mixed with a compound of formula (I) (Example 5, FIG. 3). The series is classed as physicochemical, human. The note with it: dry eye patient meibomian lipids with 3 μL compound. As for the experimental part: as §2
The nature of series [3]: Surface pressure-area (Π-A) measurements of pure lipid films on a Langmuir-Blodgett minitrough (Example 5, FIG. 1). As to conditions: pure film at air-buffer interface, 20° C. and 34° C. The series is classed as physicochemical. The procedure:
as §1, §2
This is indicated by the take-off moving to the left of the x-axis (indicating collapse), whereas the take-off for the compounds of formula (I) remains constant.

Series [4] in a line: Π-A isocycles of equimolar pure lipid films on artificial tear buffer, Langmuir trough (Example 6, FIG. 4). It counts as physicochemical. As to conditions: for surface activity of pure film: 7.5 nmol film; for surface activity of pure film / change of Π-A profile / take-off through repeated isocycles / change of maximum surface pressure (Πmax) with increasing isocycles: 35° C.; for change of Π-A profile / take-off through repeated isocycles / change of maximum surface pressure (Πmax) with increasing isocycles: 7.5 nmol pure film; for surface area per molecule on take-off: pure film, estimated. As for the experimental part:
(§3) Freshly synthesised (O-oleoyl)-ω-hydroxypalmitic acid (an example of a compound of formula (I)) was spread either alone or mixed with human meibum on a Langmuir trough on an artificial tear buffer. Pressure-area isocycle profiles were recorded and compared with those of palmityl oleate and oleic acid, alone or mixed with meibum. These measurements were accompanied by fluorescence microscopy of meibum mixed films during pressure-area isocycles.
The surface characteristics of (O-oleoyl)-ω-hydroxypalmitic acid were compared with palmityl oleate (a structurally similar wax ester) and oleic acid (which is equivalent to the fatty acid (amphiphilic) component of (O-oleoyl)-ω-hydroxypalmitic acid).
Films were formed by spreading 7.5 nmol of the lipids dissolved in chloroform onto the cleaned surface (air-buffer interface) of an artificial tear buffer (NaCl: 6.63 g/L, KCl: 1.72 g/L, NaHCO3: 1.38 g/L, CaCl2.2H2O: 0.15 g/L, NaH2PO4×H2O: 0.10 g/L and MOPS: 4.18 g/L dissolved in ion exchange ultrapure water) in a double barrier 80 mL temperature-controlled (35° C.) Langmuir trough (Nima Technology Ltd, UK). After 5 isocycles were obtained, the temperature was lowered to 20° C. A Whilhelmy balance (Whatman No. 1 filter paper) was used to record surface pressure during isocycles (79 cm^2-16 cm^2 at 10 cm^2/min).

Series [5] in a line: Π-A isocycles of human meibum films mixed with model lipids (Example 6, FIG. 5). It counts as physicochemical. The note with it: for change of Πmax in subsequent isocycles: meibum 20 μg mixed with lipid, 20° C.; for Πmax in the first isocycle versus meibomian lipid films alone: meibum 20 μg mixed with −10 mol % lipid, spread at 20° C. The procedure:
as §3
Collection of meibomian lipids was in accordance with the Tenets of Helsinki. Human meibomian lipids were gently squeezed out of the meibomian glands of a single subject's lower eyelids by applying pressure to the eyelids using sterile cotton swabs on either side of the lid. Multiple collections were carried out and pooled to provide consistency in the experiments. The subject was devoid of any external signs or symptoms of ocular pathology including dry eye disease. The expressed lipids were harvested using a sterile stainless steel spatula and dissolved in chloroform. The meibomian lipids were dried through vacuum concentration and centrifugation, and then reconstituted in chloroform spiked with 0.5% (w/w) of the fluorophore, 1-palmitoyl-2-[12-[(7-nitro-2-1,3-benzoxadiazol-4-yl)amino]dodecanoyl]-sn-glycero-3-phosphatidylcholine] (NBD-DPPC) (Avanti Polar Lipids, Auspep Pty. Ltd (Tullamarine, Australia)) and stored at −20° C. until used.
The results were compared with mixtures with meibomian lipids. Human meibum (20 μg) was mixed with −10 mol % (O-oleoyl)-ω-hydroxypalmitic acid (2 μg) or with palmityl oleate (1.9 μg) or oleic acid (1.1 μg). These mixtures were spread at 20° C. and 5 isocycles carried out. The film was then heated to 35° C. for another 5 isocycles. The Π-A curves were compared with those for pure meibomian lipid films. In some cases, meibomian lipids doped with 0.5% (w/w) NBD-DPPC were used in order to view the films microscopically.
In general, meibomian films were very tolerant to the changes in their composition, indicated by the fact that the shapes of the different Π-A curves of mixed films were similar to those obtained from films of pure meibomian lipids (FIG. 5). […] Meibum containing fluorophore was spread on artificial tear buffer alone or pre-mixed with each of (O-oleoyl)-ω-hydroxypalmitic acid, palmityl oleate, or oleic acid were spread at 20° C. on the trough. After five isocycles, the trough was heated to 35° C. and five more isocycles were carried out. Then the trough was cooled back to 20° C. and again five more isocycles were run.

Series [6] in a line: Fluorescence microscopy of meibum mixed films during pressure-area isocycles (Example 6, FIG. 6). The series is classed as physicochemical, human. As to conditions: NBD-DPPC doped meibum, 20° C. As for the experimental part:
as §3
Collection of meibomian lipids was in accordance with the Tenets of Helsinki. Human meibomian lipids were gently squeezed out of the meibomian glands of a single subject's lower eyelids by applying pressure to the eyelids using sterile cotton swabs on either side of the lid. Multiple collections were carried out and pooled to provide consistency in the experiments. The subject was devoid of any external signs or symptoms of ocular pathology including dry eye disease. […]
Micrographs comparing the appearance of pure meibomian lipid films (Row A) with meibomian lipids mixed with the (O-oleoyl)-ω-hydroxypalmitic acid (Row B), palmityl oleate (Row C) or oleic acid (Row D) at 20° C. […] Although not quantitatively verified, the darker patches appeared to be more prevalent in the mixed films of palmityl oleate and oleic acid than for pure meibomian lipid films.

[7] abbreviates: meibomian lipids (20 μL) mixed with 3-5 μL compound, FIG. 2.

Molecules are shown by their SMILES. “Also recorded” adds a separate entry of the source. Where two headings read alike, the source gives them in different places.

In the case of `CCCCCCCC/C=C\CCCCCCCC(=O)OCCCCCCCCCC(=O)O` [(O-oleoyl)-10-hydroxycaprinic acid, (O)-oleoyl-10-hydroxydecanoic acid], in series [1] (setting [7]), the “stabilisation of meibomian lipid film” value is listed as “stabilise the films”.
On to `CCCCCCCC/C=C\CCCCCCCC(=O)OCCCCCCCCCCCCCCCC(=O)O` [(O-oleoyl)-16-hydroxypalmitic acid], for which, in series [2], the “hysteresis of pressure/area curve” value is listed as “increase in hysteresis” and the “surface pressure of film” value was “increases the surface pressure”. Besides, the “film collapse during compression/expansion cycles (take-off position)” value in series [3] is reported as “do not collapse”. Also, in series [4] (listed as (O-oleoyl)-w-hydroxypalmitic acid), the “surface activity of pure film” value is on record as “as surface active as oleic acid films”. In series [4] (listed as (O-oleoyl)-ω-hydroxypalmitic acid), the “surface activity of pure film” value is “very surface active; also recorded: much more surface active”. Also, in series [4] (FIG. 4), the “change of Π-A profile / take-off through repeated isocycles” value is “little change in its profile”. For the same compound, in series [4] (compared with palmityl oleate or oleic acid), the “surface area covered by pure film” value is “much larger surface area than either palmityl oleate or oleic acid”. Further, the “surface area per molecule on take-off” value in series [4] is given as 131 Å^2 per molecule. Also, in series [5], the “change of Πmax in subsequent isocycles” value was “small increase” and the “Πmax in the first isocycle versus meibomian lipid films alone” value is listed as “higher”. In series [1] (setting [7]), the “stabilisation of meibomian lipid film” value is listed as “stabilise the films”.
Turning to `CCCCCCCCCCCCCCCCCC(=O)OCCCCCCCCCCCCCCCC(=O)O` [(O-stearyl)-16-hydroxypalmitic acid, (O)-stearyl-16-hydroxypalmitic acid], in series [3], the “film collapse during compression/expansion cycles (take-off position)” value was “do not collapse”. The “stabilisation of meibomian lipid film” value in series [1] is given as “stabilise the films”.
Turning to `CCCCCCCC/C=C\CCCCCCCC(=O)O` [oleic acid, reference compound], in series [4] (FIG. 4), the “change of maximum surface pressure (Πmax) with increasing isocycles” value is “decreases” and the “change of Π-A profile / take-off through repeated isocycles” value is given as “decreases in take-off”. In addition, in series [5], the “change of Πmax in subsequent isocycles” value is reported as “decreased” and the “Πmax in the first isocycle versus meibomian lipid films alone” value was “higher”. Moreover, the “microscopic appearance of meibomian film mixed with lipid” value in series [6] was “did not appear substantially different from pure meibomian lipid films”.
In the case of `CCCCCCCC/C=C\CCCCCCCC(=O)OCCCCCCCCCCCCCCCC` [palmityl oleate, reference compound], the “film collapse during compression/expansion cycles (take-off position)” value in series [3] is reported as “collapse”. In series [4] (FIG. 4), the “change of maximum surface pressure (Πmax) with increasing isocycles” value was “increase in maximum surface pressure” and the “change of Π-A profile / take-off through repeated isocycles” value was “slow shift in the Π-A curve to the left”. The “area per molecule at flattening of the Π-A curve” value in series [4] (assuming the film is a monolayer up to this point, FIG. 4) is “about 60 Å^2”. Further, in series [4], the “surface area per molecule on take-off” value is reported as 82 Å^2 per molecule. In series [5], the “change of Πmax in subsequent isocycles” value is reported as “marked increase” and the “Πmax in the first isocycle versus meibomian lipid films alone” value is listed as “did not influence”. Further, the “microscopic appearance of meibomian film mixed with lipid” value in series [6] is “did not appear substantially different from pure meibomian lipid films”.
As to `CCCCCCCCCCCCCCCCCC(=O)OCCCCCCCCCCCCCCCC` [palmityl stearate wax ester, palmityl stearate], in series [3], the “film collapse during compression/expansion cycles (take-off position)” value is on record as “collapse”.
The same measure, in the same setting: for `CC/C=C\C/C=C\C/C=C\CCCCCCCC(=O)OCCCCCCCCCCCCCCCCCC` [steroyl linolenate wax ester, steroyl linolenate] the value was “collapse”.
